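The compound was tested at five concentrations on cells cultured in 96-well plates, with a 48-hour exposure period. At the TGI there is no net growth.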
Tests used:
Experiment in all cases: inhibition of tumour cell growth, NCI panel, 48 h
[1] = tested on: 786-0 renal
[2] = tested on: A498 renal
[3] = tested on: A549 NSCLC
[4] = tested on: ACHN renal
[5] = tested on: BT-549 breast
[6] = tested on: CAKI-1 renal
[7] = tested on: CCRF-CEM leukemia
[8] = tested on: COLO 205 colon
[9] = tested on: DU-145 prostate
[10] = tested on: EKVX NSCLC
[11] = tested on: HCC-2998 colon
[12] = tested on: HCT-116 colon
[13] = tested on: HCT-15 colon
[14] = tested on: HL-60(TB) leukemia
[15] = tested on: HOP-62 NSCLC
[16] = tested on: HOP-92 NSCLC
[17] = tested on: HS 578T breast
[18] = tested on: HT29 colon
[19] = tested on: IGROV1 ovarian
[20] = tested on: KM12 colon
[21] = tested on: LOX IMVI melanoma
[22] = tested on: M14 melanoma
[23] = tested on: MALME-3M melanoma
[24] = tested on: MCF7 breast
[25] = tested on: MDA-MB-231 breast
[26] = tested on: MDA-MB-435
[27] = tested on: MDA-N
[28] = tested on: NCI-H226 lung
[29] = tested on: NCI-H23 lung
[30] = tested on: NCI-H460 lung
[31] = tested on: NCI-H522 lung
[32] = tested on: NCI/ADR-RES ovarian
[33] = tested on: OVCAR-3 ovarian
[34] = tested on: OVCAR-4 ovarian
[35] = tested on: OVCAR-5 ovarian
[36] = tested on: OVCAR-8 ovarian
[37] = tested on: PC-3 prostate
[38] = tested on: RPMI-8226 leukemia
[39] = tested on: RXF 393 renal
[40] = tested on: SF-268 CNS
[41] = tested on: SF-295 CNS
[42] = tested on: SF-539 CNS
[43] = tested on: SK-MEL-2 melanoma
[44] = tested on: SK-MEL-28 melanoma
[45] = tested on: SK-MEL-5 melanoma
[46] = tested on: SK-OV-3 ovarian
[47] = tested on: SN12C renal
[48] = tested on: SNB-19 CNS
[49] = tested on: SNB-75 CNS
[50] = tested on: SR leukemia
[51] = tested on: SW-620 colon
[52] = tested on: T-47D breast
[53] = tested on: TK-10 renal
[54] = tested on: U251 CNS
[55] = tested on: UACC-257 melanoma
[56] = tested on: UACC-62 melanoma
[57] = tested on: UO-31 renal
[58] = tested on: K-562 leukemia

Compound COC(=O)C1(CCC(=O)N(C)c2ccccc2)NNC2C(=O)N(c3ccccc3)C(=O)C21 (centres undefined) has a TGI [1] greater than 10 µM, a TGI [2] greater than 10 µM and a TGI [3] greater than 10 µM. It also gave a TGI [4] greater than 10 µM, a TGI [5] greater than 10 µM and a TGI [6] greater than 10 µM. It also gave a TGI [7] greater than 10 µM, a TGI [8] greater than 10 µM and a TGI [9] greater than 10 µM. It also gave a TGI [10] greater than 10 µM, a TGI [11] greater than 10 µM and a TGI [12] greater than 10 µM. For the same compound, the TGI [13] was greater than 10 µM, the TGI [14] was greater than 10 µM and the TGI [15] was greater than 10 µM. It also gave a TGI [16] greater than 10 µM, a TGI [17] greater than 10 µM and a TGI [18] greater than 10 µM. For the same compound, the TGI [19] was greater than 10 µM, the TGI [20] was greater than 10 µM and the TGI [21] was greater than 10 µM. It also gave a TGI [22] greater than 10 µM, a TGI [23] greater than 10 µM and a TGI [24] greater than 10 µM. It also gave a TGI [25] greater than 10 µM, a TGI [26] greater than 10 µM and a TGI [27] greater than 10 µM. The TGI [28] was greater than 10 µM, the TGI [29] was greater than 10 µM and the TGI [30] was greater than 10 µM. It also gave a TGI [31] greater than 10 µM, a TGI [32] greater than 10 µM and a TGI [33] greater than 10 µM. The TGI [34] was greater than 10 µM, the TGI [35] was greater than 10 µM and the TGI [36] was greater than 10 µM. The TGI [37] was greater than 10 µM, the TGI [38] was greater than 10 µM and the TGI [39] was greater than 10 µM. For the same compound, the TGI [40] was greater than 10 µM, the TGI [41] was greater than 10 µM and the TGI [42] was greater than 10 µM. The TGI [43] was greater than 10 µM, the TGI [44] was greater than 10 µM and the TGI [45] was greater than 10 µM. It also gave a TGI [46] greater than 10 µM, a TGI [47] greater than 10 µM and a TGI [48] greater than 10 µM. The TGI [49] was greater than 10 µM, the TGI [50] was greater than 10 µM and the TGI [51] was greater than 10 µM. For the same compound, the TGI [52] was greater than 10 µM, the TGI [53] was greater than 10 µM and the TGI [54] was greater than 10 µM. It also gave a TGI [55] greater than 10 µM, a TGI [56] greater than 10 µM and a TGI [57] greater than 10 µM.
For COc1ccc(NC(=S)N/N=C(\c2ccccc2)c2ccccn2)cc1, the TGI [1] was 11.2 µM, the TGI [2] was 16 µM and the TGI [3] was 14.2 µM. It also gave a TGI [4] of 10.5 µM, a TGI [5] of 20.2 µM and a TGI [6] of 10.5 µM. The TGI [7] was greater than 40.1 µM, the TGI [8] was 30.3 µM and the TGI [9] was 11.2 µM. The TGI [10] was 2.65 µM, the TGI [11] was 22.3 µM and the TGI [12] was 13.7 µM. The TGI [13] was 15 µM, the TGI [14] was 1.9 µM and the TGI [15] was 5.33 µM. The TGI [16] was 9.87 µM, the TGI [17] was 56.8 µM and the TGI [18] was 23.6 µM. The TGI [19] was 17.2 µM, the TGI [58] was 3.06 µM and the TGI [20] was 15.9 µM. For the same compound, the TGI [21] was 18.4 µM, the TGI [22] was 2.61 µM and the TGI [23] was 11 µM. It also gave a TGI [24] of 0.703 µM, a TGI [25] of 14.4 µM and a TGI [26] of 16.9 µM. For the same compound, the TGI [27] was 16.2 µM, the TGI [28] was 2.61 µM and the TGI [29] was 16.4 µM. The TGI [30] was 6.47 µM, the TGI [31] was 15.3 µM and the TGI [32] was 23.8 µM. The TGI [33] was 13.2 µM, the TGI [34] was 16.9 µM and the TGI [35] was 6.5 µM. It also gave a TGI [36] of 11.7 µM, a TGI [37] of 17.6 µM and a TGI [38] greater than 20.6 µM. It also gave a TGI [39] of 15.7 µM, a TGI [40] of 14.8 µM and a TGI [41] of 9.59 µM. The TGI [42] was 3.03 µM, the TGI [43] was 14.1 µM and the TGI [44] was 18.5 µM. It also gave a TGI [45] of 6.53 µM, a TGI [46] of 16 µM and a TGI [47] of 7.24 µM. For the same compound, the TGI [48] was 18.5 µM, the TGI [50] was 5.57 µM and the TGI [51] was 20.2 µM. It also gave a TGI [52] of 13.6 µM, a TGI [53] of 2.27 µM and a TGI [54] of 27.1 µM. It also gave a TGI [55] of 2.44 µM, a TGI [56] of 10.2 µM and a TGI [57] of 8.73 µM.
